What follows are compounds tested against T1, human PI3Kγ (recombinant GST-p110γ) (Homo sapiens, UniProt P48736) (assay: in vitro kinase assay (Scintillation Proximity Assay), PI3K gamma isoform). Conditions: SPA, phosphatidylinositol substrate, 60 minutes room temperature.
T1 construct: Residues 38-1102 of human PI3Kγ are subcloned into the BamH1 and EcoR1 sites of the transfer vector pAcG2T; made in house; host or cells: Sf9 (Spodoptera frugiperda) insect cells, baculovirus
T1 sequence (P48736 38-1102): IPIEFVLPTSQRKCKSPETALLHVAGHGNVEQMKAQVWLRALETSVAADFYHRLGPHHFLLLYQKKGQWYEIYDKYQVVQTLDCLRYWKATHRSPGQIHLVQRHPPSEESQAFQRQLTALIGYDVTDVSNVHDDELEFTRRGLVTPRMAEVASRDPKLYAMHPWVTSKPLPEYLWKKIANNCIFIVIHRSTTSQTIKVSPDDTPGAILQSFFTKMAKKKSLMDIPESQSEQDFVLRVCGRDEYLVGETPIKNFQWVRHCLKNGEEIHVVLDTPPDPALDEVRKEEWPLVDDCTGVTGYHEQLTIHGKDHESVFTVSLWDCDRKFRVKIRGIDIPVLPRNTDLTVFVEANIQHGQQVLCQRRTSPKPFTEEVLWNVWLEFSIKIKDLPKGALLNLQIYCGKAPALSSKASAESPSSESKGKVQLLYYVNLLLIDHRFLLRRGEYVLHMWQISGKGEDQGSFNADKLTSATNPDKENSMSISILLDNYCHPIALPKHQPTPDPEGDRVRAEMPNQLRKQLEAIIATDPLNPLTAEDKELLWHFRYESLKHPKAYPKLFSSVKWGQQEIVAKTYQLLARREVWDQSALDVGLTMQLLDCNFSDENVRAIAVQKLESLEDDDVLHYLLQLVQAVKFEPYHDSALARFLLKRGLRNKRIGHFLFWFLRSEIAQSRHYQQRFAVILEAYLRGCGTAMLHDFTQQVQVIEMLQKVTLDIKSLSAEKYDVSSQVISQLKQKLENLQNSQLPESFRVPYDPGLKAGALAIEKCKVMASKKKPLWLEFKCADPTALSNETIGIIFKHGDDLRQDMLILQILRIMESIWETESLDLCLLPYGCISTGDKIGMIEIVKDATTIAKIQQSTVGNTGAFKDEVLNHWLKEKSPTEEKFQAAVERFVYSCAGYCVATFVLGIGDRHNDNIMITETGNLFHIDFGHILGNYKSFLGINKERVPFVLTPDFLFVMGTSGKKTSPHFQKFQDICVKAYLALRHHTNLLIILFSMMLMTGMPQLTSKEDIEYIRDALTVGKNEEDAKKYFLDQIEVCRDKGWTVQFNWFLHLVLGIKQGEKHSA
Format: biochemical
Experimental: To express the recombinant protein, Sf9 (Spodoptera frugiperda 9) insect cells are routinely maintained at densities between 3×10^5 and 3×10^6 cells/ml in serum containing TNMFH medium (Sigma). Sf9 cells, at a density of 2×10^6 are infected with human GST-PI3KγΔ34 baculovirus at a multiplicity of infection (m.o.i.) of 1 for 72 hours. The infected cells are harvested by centrifugation at 1400 g for 4 minutes at 4° C. and the cell pellets are frozen at −80° C. […] Cell lysate (supernatant) is added (usually as 50 ml lysate to 1 ml GST resin in 50 ml tubes) and gently rotated on a mixer at 4° C. for 2-3 hours. The unbound flow through sample is collected by centrifugation at 1000 g for 5 minutes at 4° C. using a DENLEY™ centrifuge. The 1 ml GST resin containing bound material is transferred to a 15 ml FALCON™ centrifuge tube for subsequent washing and elution steps. Firstly a series of 3 cycles of washings (mixing by gentle inversion) is performed with 15 ml ice cold wash Buffer A (50 mM Tris-HCl pH 7.5, 1% Triton X-100, 2 mM DTT) interspersed with centrifugation at 1000 g for 5 minutes at 4° C. A final single wash step is performed with 15 ml ice cold wash Buffer B (50 mM Tris-HCl pH 7.5, 2 mM DTT) and then centrifuged at 1000 g for 5 minutes at 4° C. The washed GST resin is finally eluted with 4 cycles of 1 ml ice cold elution buffer (50 mM Tris-HCl pH 7.5, 10 mM reduced glutathione, 2 mM DTT, 150 mM NaCl, 1 mM NaF, 50% ethylene glycol and protease inhibitors) interspersed with centrifugation at 1000 g for 5 minutes at 4° C. Samples are aliquoted and stored at −20° C.
An in vitro kinase assay was established that measures the transfer of the terminal phosphate of adenosine triphosphate to phosphatidylinositol. The kinase reaction is performed in a white 96 well microtitre plate as a Scintillation Proximiy Assay. […] The reaction is started by the addition of 20 μl of enzyme mix (40 mM Tris, 200 mM NaCl, 2 mM EGTA containing recombinant GST-p110γ).
Cc1nc(NC(=O)NCc2nnn[nH]2)sc1-c1ccc(S(C)(=O)=O)c(F)c1 [Example 124, 1-[5-(3-Fluoro-4-methanesulfonyl-phenyl)-4-methyl-thiazol-2-yl]-3-(1H-tetrazol-5-ylmethyl)-urea] showed an IC50 of 7 nM.
In the case of CCn1nnc(CNC(=O)Nc2nc(C)c(-c3ccc(S(C)(=O)=O)c(F)c3)s2)n1 [Example 131, 1-(2-Ethyl-2H-tetrazol-5-ylmethyl)-3-[5-(3-fluoro-4-methanesulfonyl-phenyl)-4-methyl-thiazol-2-yl]-urea], the IC50 is reported as 17 nM.
In the case of Cc1nc(NC(=O)NCC(=O)N(C)C(C)C)sc1-c1ccc(S(C)(=O)=O)c(F)c1 [Example 138, 2-{3-[5-(3-Fluoro-4-methanesulfonyl-phenyl)-4-methyl-thiazol-2-yl]-ureido)-N-isopropyl-N-methyl-acetamide], the IC50 is reported as 18 nM.
CCC(C)(C)NC(=O)CCNC(=O)Nc1nc(C)c(-c2ccc(S(C)(=O)=O)c(F)c2)s1 [Example 145, N-(1,1-Dimethyl-propyl)-3-{3-[5-(3-fluoro-4-methanesulfonyl-phenyl)-4-methyl-thiazol-2-yl]-ureido}-propionamide] gave an IC50 of 17 nM.
Work on Cc1nc(NC(=O)NCCc2nnn(C(C)C)n2)sc1-c1ccc(S(C)(=O)=O)c(F)c1 [Example 150, 1-[5-(3-Fluoro-4-methanesulfonyl-phenyl)-4-methyl-thiazol-2-yl]-3-[2-(2-isopropyl-2H-tetrazol-5-yl)-ethyl]-urea] yielded an IC50 of 56 nM.
